Reference: US20250230155A1 (Vanderbilt University, priority 2021, published 2025)

Target: T1, human mAChR M4 (Homo sapiens, UniProt P08173)
T1 construct: expressed in transfected cells
T1 sequence (P08173 1-479): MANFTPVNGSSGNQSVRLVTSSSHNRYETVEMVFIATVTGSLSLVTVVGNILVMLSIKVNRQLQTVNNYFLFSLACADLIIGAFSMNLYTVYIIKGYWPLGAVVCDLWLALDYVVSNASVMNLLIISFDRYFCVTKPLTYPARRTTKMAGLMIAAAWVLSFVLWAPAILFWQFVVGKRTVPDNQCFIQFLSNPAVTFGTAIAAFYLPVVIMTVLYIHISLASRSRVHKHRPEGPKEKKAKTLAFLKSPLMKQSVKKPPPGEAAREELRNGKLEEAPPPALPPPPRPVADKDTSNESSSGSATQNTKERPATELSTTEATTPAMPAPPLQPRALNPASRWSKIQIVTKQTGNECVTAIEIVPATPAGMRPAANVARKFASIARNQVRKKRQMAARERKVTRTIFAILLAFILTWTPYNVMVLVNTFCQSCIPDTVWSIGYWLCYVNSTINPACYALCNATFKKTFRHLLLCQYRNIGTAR
Assay: mAChR M4 cell-based functional assay (calcium mobilization, CHO-K1 hM4-Gqi5 cells)
Conditions: for Emax at 30 µM: CHO-K1, % ACh maximum at 30 μM, human M4; for EC50: positive allosteric modulator activity, increase in the EC20 acetylcholine response, CHO-K1 hM4-Gqi5 cells, read-out: Human M4 EC50; for Emax: CHO-K1
Method in brief: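 CHO-K1 cells stably expressing human M4 with chimeric Gqi5, loaded with Fluo-4 AM; compounds given as 11-point 1:3 curves and calcium flux read on FDSS at 1 Hz. Acetylcholine EC20 added at 144 s, EC80 at 230 s; agonist, PAM (EC20 potentiation) and antagonist (EC80 inhibition) EC50/Emax from four-parameter fits.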

Row | Structure (SMILES) | Emax at 30 µM | EC50 | Emax
1 | O=C(NCc1cncs1)c1ccc(N2CCc3ncc(C(F)(F)F)cc3C2)nn1 [Example 510, N-(thiazol-5-ylmethyl)-6-(3-(trifluoromethyl)-7,8-dihydro-1,6-naphthyridin-6(5H)-yl)pyridazine-3-carboxamide] | 81% | 855 nM | –
2 | [2H]C([2H])([2H])c1cnc2c(c1)CN(c1nnc(C#N)cc1C)CC2 [Example 421, 5-methyl-6-(3-(methyl-d3)-7,8-dihydro-1,6-naphthyridin-6(5H)-yl)pyridazine-3-carbonitrile] | – | 336 nM | 89%
3 | Cc1cc(C(=O)N2CC(c3cccnc3)C2)nnc1N1CCc2ncc(N3CCCn4nccc43)cc2C1 [Example 526, (6-(3-(6,7-dihydropyrazolo[1,5-a]pyrimidin-4(5H)-yl)-7,8-dihydro-1,6-naphthyridin-6(5H)-yl)-5-methylpyridazin-3-yl)(3-(pyridin-3-yl)azetidin-1-yl)methanone] | 116% | 17 nM | –
4 | Cc1cc(C(=O)NCc2ccncc2)cnc1N1CCc2ncc(Nc3ccnn3C)cc2C1 [Example 473, 5-methyl-6-(3-((1-methyl-1H-pyrazol-5-yl)amino)-7,8-dihydro-1,6-naphthyridin-6(5H)-yl)-N-(pyridin-4-ylmethyl)nicotinamide] | 87% | 324 nM | –
5 | Cc1cc(C(=O)NCc2ccc(N3CCOCC3)nc2)cnc1N1CCc2ncc(-c3cn(C)nc3C)cc2C1 [Example 480, 6-(3-(1,3-dimethyl-1H-pyrazol-4-yl)-7,8-dihydro-1,6-naphthyridin-6(5H)-yl)-5-methyl-N-((6-morpholinopyridin-3-yl)methyl)nicotinamide] | 76% | 1390 nM | –
6 | Cc1cc(C(=O)N2CCC(c3ccncc3)C2)nnc1N1CCc2ncc(N3CCCn4nccc43)cc2C1 (centres unmarked) [Example 521, (6-(3-(6,7-dihydropyrazolo[1,5-a]pyrimidin-4(5H)-yl)-7,8-dihydro-1,6-naphthyridin-6(5H)-yl)-5-methylpyridazin-3-yl)(3-(pyridin-4-yl)pyrrolidin-1-yl)methanone] | 99% | 98 nM | –
7 | Cc1cc(C#N)cnc1N1CCc2ncc(C(F)F)cc2C1 [Example 307, 6-(3-(difluoromethyl)-7,8-dihydro-1,6-naphthyridin-6(5H)-yl)-5-methylnicotinonitrile] | – | 162 nM | 100%
8 | Cc1cc(C(=O)N2CC(F)(F)C2)nnc1N1CCc2ncc(-n3cccn3)cc2C1 [Example 533, (6-(3-(1H-pyrazol-1-yl)-7,8-dihydro-1,6-naphthyridin-6(5H)-yl)-5-methylpyridazin-3-yl)(3,3-difluoroazetidin-1-yl)methanone] | 88% | 107 nM | –
9 | Cc1cnc2c(c1)CN(c1ncc(C(=O)Nc3ccncc3)cc1C)CC2 [Example 438, 5-methyl-6-(3-methyl-7,8-dihydro-1,6-naphthyridin-6(5H)-yl)-N-(pyridin-4-yl)nicotinamide] | 88% | 517 nM | –
10 | Cc1nc(Cl)c(C)c(N2CCc3ncc(N)cc3C2)n1 [compound 213, 6-(6-chloro-2,5-dimethylpyrimidin-4-yl)-5,6,7,8-tetrahydro-1,6-naphthyridin-3-amine] | – | 1890 nM | 94%
11 | Cc1cc(C(=O)NC2CCc3ncccc3C2)nnc1N1CCc2ncc(C(F)(F)F)cc2C1 (centres unmarked) [Example 501, 5-methyl-N-(5,6,7,8-tetrahydroquinolin-6-yl)-6-(3-(trifluoromethyl)-7,8-dihydro-1,6-naphthyridin-6(5H)-yl)pyridazine-3-carboxamide] | 109% | 127 nM | –
12 | Cc1cc(Nc2cnc3c(c2)CN(c2ncc(C#N)cc2C)CC3)n(CCC(C)C)n1 [Example 313, 6-(3-((1-isopentyl-3-methyl-1/- pyrazol-5-yl)amino)-7,8-dihydro-1,6-naphthyridin-6(5H)-yl)-5-methylnicotinonitrile] | 42% | 605 nM | –

The next lines start with results.

Row | Emax at 30 µM | EC50 | Structure (SMILES) | Emax
13 | 96% | 131 nM | Cc1cc(C(=O)N2CCC2)nnc1N1CCc2ncc(N3CCO[C@H](C)C3)cc2C1 [Example 537, (R)-azetidin-1-yl(5-methyl-6-(3-(2-methylmorpholino)-7,8-dihydro-1,6-naphthyridin-6(5H)-yl)pyridazin-3-yl)methanone] | –
14 | 80% | 21 nM | Cc1cc(C(=O)NC2(c3cccnc3)CC2)nnc1N1CCc2ncc(N3CCCn4nccc43)cc2C1 [Example 553, 6-(3-(6,7-dihydropyrazolo[1,5-a]pyrimidin-4(5H)-yl)-7,8-dihydro-1,6-naphthyridin-6(5H)-yl)-5-methyl-N-(1-(pyridin-3-yl)cyclopropyl)pyridazine-3-carboxamide] | –
15 | 82% | 218 nM | Cc1nc(Cl)c(C)c(N2CCc3ncc(-c4cnn(C)c4)cc3C2)n1 [compound 92, 6-(6-chloro-2,5-dimethyl-pyrimidin-4-yl)-3-(1-methylpyrazol-4-yl)-7,8-dihydro-5H-1,6-naphthyridine] | –
16 | 68% | 3170 nM | Cc1cc(C(=O)NCc2ccc3c(c2)COC3)cnc1N1CCc2ncccc2C1 [compound 153, N-(1,3-dihydroisobenzofuran-5-ylmethyl)-6-(7,8-dihydro-5H-1,6-naphthyridin-6-yl)-5-methyl-pyridine-3-carboxamide] | –
17 | 76% | 195 nM | Cc1ccncc1-c1cnc2c(c1)CN(c1nnc(C#N)c(C)c1C)CC2 [compound 55, 4,5-dimethyl-6-[3-(4-methyl-3-pyridyl)-7,8-dihydro-5H-1,6-naphthyridin-6-yl]pyridazine-3-carbonitrile] | –
18 | 63% | 3910 nM | Cc1cc(C(=O)NCc2cnc3c(c2)CCC3)cnc1N1CCc2ncccc2C1 [compound 155, N-(6,7-dihydro-5H-cyclopenta[b]pyridin-3-ylmethyl)-6-(7,8-dihydro-5H-1,6-naphthyridin-6-yl)-5-methyl-pyridine-3-carboxamide] | –
19 | 56% | ≥ 10000 nM | CNC(=O)c1ccc(CNC(=O)c2cnc(N3CCc4ncccc4C3)c(C)c2)cc1 [compound 149, 6-(7,8-dihydro-5H-1,6-naphthyridin-6-yl)-5-methyl-N-[[4-(methylcarbamoyl)phenyl]methyl] pyridine-3-carboxamide] | –
20 | 50% | ≥ 10000 nM | Cc1cc(C(=O)NCc2ncc(C(F)(F)F)cn2)cnc1N1CCc2ncccc2C1 [compound 145, 6-(7,8-dihydro-5H-1,6-naphthyridin-6-yl)-5-methyl-N-[[5-(trifluoromethyl)pyrimidin-2-yl]methyl]pyridine-3-carboxamide] | –
21 | 55% | ≥ 10000 nM | Cc1cc(C(=O)NC2CCOCC2)cnc1N1CCc2ncccc2C1 [compound 122, 6-(7,8-dihydro-5H-1,6-naphthyridin-6-yl)-5-methyl-N-tetrahydropyran-4-yl-pyridine-3-carboxamide] | –
22 | 103% | 191 nM | Cc1nc(NC2CCOC2)nc(N2CCc3ncc(Nc4ccnn4C)cc3C2)c1C (centres unmarked) [compound 279, 6-(5,6-dimethyl-2-((tetrahydrofuran-3-yl)amino)pyrimidin-4-yl)-N-(1-methyl-1H-pyrazol-5-yl)-5,6,7,8-tetrahydro-1,6-naphthyridin-3-amine] | –
23 | 86% | 362 nM | Cc1cc(C#N)cnc1N1CCc2ncc(-c3cnn(CC4CC4)c3)cc2C1 [compound 102, 6-[3-[1-(cyclopropylmethyl)pyrazol-4-yl]-7,8-dihydro-5H-1,6-naphthyridin-6-yl]-5-methyl-pyridine-3-carbonitrile] | –
24 | 75% | 439 nM | COc1ccc(Oc2cnc3c(c2)CN(c2ncc(C#N)cc2C)CC3)cn1 [compound 182, 6-[3-[(6-methoxy-3-pyridyl)oxy]-7,8-dihydro-5H-1,6-naphthyridin-6-yl]-5-methyl-pyridine-3-carbonitrile] | –
25 | 96% | 1110 nM | Cc1c(C(=O)NCc2cncs2)nnc(N2CCc3ncccc3C2)c1C [compound 138, 6-(7,8-dihydro-5H-1,6-naphthyridin-6-yl)-4,5-dimethyl-N-(thiazol-5-ylmethyl)pyridazine-3-carboxamide] | –
26 | 75% | 70 nM | Cc1cc(C(=O)N2CC(F)(F)C2)nnc1N1CCc2ncc(-c3ccnn3C)cc2C1 [Example 567, (3,3-difluoroazetidin-1-yl)(5-methyl-6-(3-(1-methyl-1H-pyrazol-5-yl)-7,8-dihydro-1,6-naphthyridin-6(5H)-yl)pyridazin-3-yl)methanone] | –
27 | 91% | 96.9 nM | Cc1nc(Cl)c(C)c(N2CCc3ncc(-c4cncs4)cc3C2)n1 [compound 94, 5-[6-(6-chloro-2,5-dimethyl-pyrimidin-4-yl)-7,8-dihydro-5H-1,6-naphthyridin-3-yl]thiazole] | –
28 | 101% | 51 nM | Cc1cc(C(=O)N2CC(F)(F)C2)nnc1N1CCc2ncc(N3CCO[C@H](C)C3)cc2C1 [Example 539, (R)-(3,3-difluoroazetidin-1-yl)(5-methyl-6-(3-(2-methylmorpholino)-7,8-dihydro-1,6-naphthyridin-6(5H)-yl)pyridazin-3-yl)methanone] | –
